# pIC50, pKi: −log10 of the molar value.
# Experiments:
# Nannochloris sp. [1] = experiment: 500 mL batch culture: growth, dry weight and lipid extract (gravimetric); assay type: cell-based; details: for effect on growth and lipid levels: 500 mL batch culture; for Lipid productivity / Change in Lipids / Specific Growth Rate: Nannochloris sp., 500 mL culture; for Change in Lipids: gravimetric, relative to averaged control without DMSO; for Specific Growth Rate: mid-exponential growth phase
# Description: (§1) Batch cultures were grown in 500 mL Pyrex media bottles with stirring and air bubbling (homemade manifold with Petco air pump, 2-4% CO2). Incoming air was sterile filtered by Polyvent 4 disposable filters (Whatman, Kent, UK). […] To minimize bacterial contamination, all equipment and materials were autoclaved and media was added to flask in a Purifier Vertical Clean bench (Labconco, Kansas City, Mo.). […] The amount of DMSO is standardized for all experiments to 0.4%.
# (§2) For all compound cultures, the 2 mL DMSO stock solution was added to media (without algae) first and mixed well. Control cultures were grown without DMSO. DMSO controls consisted of 0.04-1.0% DMSO. After the addition of algae and media, the container was plugged with a bug stopper vented closure cap and mixed thoroughly. Absorbance is measured immediately for Day 0 analysis. Afterward, absorbance was measured every 1-2 days with a cuvette (1 mL volume) on the Thermo Scientific Genesys 10S V is Spectrophotometer (ThermoFisher, San Jose) at 680 nm.
# (§3) Batch cultures were also repeated in triplicate and compared to a control culture grown at the same time. Algae were harvested and lipids were extracted for gravimetric analysis.
# (§4) The nonpolar algal extracts were harvested from 500 mL cultures when indicated on growth curves, a minimum of 3 days into stationary phase.
# (§5) Cell density was monitored by measuring absorbance at 680 nm every 1-2 days.
# (§6) 500-mL cultures were harvested 6 days into stationary phase based on absorbance values. Cells were concentrated by centrifugation and lyophilization to remove water. Nonpolar lipids were extracted by sonication and solvent (chloroform-methanol and PBS buffer). […] Changes in lipid levels for batch cultures were determined by crude lipid extract mass.
# Nannochloropsis oculata [2] = test system: Nannochloropsis oculata
# Description: Stock cultures were aerated by stirring with bubbling air (homemade manifold with Petco air pump, 2-4% CO2) or by orbital shaking (Thermo Scientific MAXQ 2000) at a constant speed of 150 rpm at 22±3° C. with a 16:8 hour light/dark cycle. Stocks were kept at stationary phase for use. Algae were prepared as dictated by culture center.
# Compounds were selected based on reported biological activity in non-microalgae organisms. To ensure that compounds retained their quality, they were stored under advised conditions after purchasing from the manufacturer. Solutions of all assay compounds were prepared as 10 mM stock solutions by dissolving in DMSO in 2-dram amber vials and then stored in darkness −20° C. 96-well PCR plates were used to create a stock plate layout that was then transferred to the algae microplates. A plate map was used to distribute each compound to a well based on molecule name, collection number, and CAS number. For 20 μM and 200 nM assay plates, 10 mM compound stock in DMSO was diluted into plate maps of 5 mM and 50 μM assay stocks, respectively.
# All materials for assay experiments were autoclaved before each use to maintain axenic algae cultures. Algae species were checked for homogeneity using a TS-100 light microscope (Nikon, Japan). […] Diluted stock solutions were made immediately prior to use for consistency and optimal plate growth. Cell density was measured on a Thermo Scientific Genesys 10S Vis Spectrophotometer (ThermoFisher, San Jose), using a 1 mL cuvette at 680 nm.
# Plates were originally run in triplicate, before replicates were increased to quadruplicate, along with a separate control plate to compare growth. Due to extensive evaporation in exterior wells over time, our unique algae plate layout was designed to use the 60 interior wells out of 96 wells for the experiment. The 36 outer wells were filled with Millipore water and media to prevent evaporation and edge effects in the inner algae wells, as well as serve as blanks. The 60 wells with algae contained a total volume of 251 μL (100 μL of media+DMSO compound stock +150 μL dilute algae stock). For 20 μM and 200 nM assay plates, 10 mM compound stock in DMSO is diluted into plate maps of 5 mM and 50 μM assay stocks, respectively. […] Plates were parafilmed during growth to limit the amount of evaporation that can occur. Plates were numbered, and numerically ordered to ensure they got the same shaker space.
# The shakers are kept at a constant shaking of 150 rpm. Ambient temperature is 22±3° C.
# Nannochloropsis salina [3] = test system: Nannochloropsis salina
# Nannochloropsis salina [4] = experiment: 500 mL batch culture: growth, dry weight and lipid extract (gravimetric); assay type: cell-based; details: for effect on growth and lipid levels: 500 mL batch culture; for Lipid productivity / Lipid content / Change in Lipids / Specific Growth Rate: N. salina; for Lipid content: dried lipid extract per dry biomass; for Change in Lipids: gravimetric, relative to averaged control without DMSO; for Specific Growth Rate: mid-exponential growth phase
# Description: as §1, §2, §3
# Cultures were harvested at day 6 in stationary phase. Cultures were pelleted, lyophilized, and extracted side-by-side. The experiment was performed in triplicate.
# The nonpolar algal extracts were harvested from 500 mL cultures when indicated on growth curves, a minimum of 3 days into stationary phase. […] Cells were crushed and nonpolar lipids were extracted by sonication (Fisher Scientific Model 120 Sonic Dismembrator, ThermoFisher, San Jose) for 1 minute in chloroform, followed by chloroform-methanol extractions, washed with PBS butter, and dried under vacuum.^55-60 The crude non-polar algae extracts were then analyzed by ^1H Nuclear Magnetic Resonance (^1H NMR) for verification of TAG presence and examination of the purity of the extract (determination of level of chlorophyll).
# as §5, §6
# [5] = test system: Phaeodactylum tricornutum; experiment: as above; assay type: cell-based; details: P. tricornutum, 500 mL culture, 4 μM in water, two replicates
# Description: as §1, §2, §3, §4, §5, §6
# FABI = FABI (FAB1); cited from earlier work
# Nannochloropsis oculata [6] = experiment: 500 mL batch culture: growth, dry weight and lipid extract (gravimetric); assay type: cell-based; details: for effect on growth and lipid levels: 500 mL batch culture; for Lipid productivity / Lipid content / Change in Lipids / Specific Growth Rate: 500 mL culture; for Lipid content: dried lipid extract per dry biomass; for Change in Lipids: gravimetric, relative to averaged control without DMSO; for Specific Growth Rate: mid-exponential growth phase
# Description: as §1, §2, §3, §4, §5, §6
# Nannochloris sp. [7] = experiment: Microplate assay: growth (absorbance 680 nm) and intracellular lipids (Nile Red fluorescence); assay type: cell-based; details: for Nile Red Fluorescence % Increase: Nannochloris sp., compounds tested at 20 μM, initial screening, p<0.05
# microalgae [8] = experiment: 500 mL batch culture (growth, gravimetric lipids), algae strain not stated; assay type: cell-based; details: for effect on growth and lipid levels: 500 mL batch cultures (Table 30)
# [9] = test system: Phaeodactylum tricornutum; experiment: Microplate assay: growth (absorbance 680 nm) and intracellular lipids (Nile Red fluorescence); assay type: cell-based
# Nannochloropsis oculata [10] = experiment: Lipid composition of batch culture extracts (fatty acid saturation / PUFA by 1H NMR, MALDI-TOF, GC/MS); assay type: cell-based; details: for SFAs (% of total lipids) / n3 PUFAs (% of UFAs) / All other PUFAs and MUFAs (% of UFAs) / UFAs (% of total lipids): 1H NMR; for SFAs (% of total lipids): Normal 24; for n3 PUFAs (% of UFAs): Normal 37; for All other PUFAs and MUFAs (% of UFAs): Normal 63; for UFAs (% of total lipids): Normal 76
# Description: The nonpolar algal extracts were harvested from 500 mL cultures when indicated on growth curves, a minimum of 3 days into stationary phase. […] Cells were crushed and nonpolar lipids were extracted by sonication (Fisher Scientific Model 120 Sonic Dismembrator, ThermoFisher, San Jose) for 1 minute in chloroform, followed by chloroform-methanol extractions, washed with PBS butter, and dried under vacuum.^55-60 The crude non-polar algae extracts were then analyzed by ^1H Nuclear Magnetic Resonance (^1H NMR) for verification of TAG presence and examination of the purity of the extract (determination of level of chlorophyll). The extracts were then divided for analysis; one part for transesterification, one part to save as crude extract, and one part for SPE separation and MALDI-TOF analysis of TAGs.
# Triacylglycerols can be isolated by solid-phase extraction (SPE) with 500 mg silica SPE cartridges (Silicycle, Quebec). The nonpolar extract is dissolved in 300 μL hexanes, and loaded on the SPE cartridge primed with hexanes. A mixture of 80:20:1 hexanes/diethyl ether/acetic acid was used as mobile phase to elute the TAGs.^61 SPE removes any chlorophyll in this process. Residual polar fraction containing polar lipids and chlorophyll was obtained by elution with acetone. All extracts and TAG fractions were dried under vacuum and stored under argon in amber vials at −20° C. before spectroscopic analysis. After SPE, the purified TAG fraction was reanalyzed with ^1H NMR spectroscopy for TAG characterization.
# The TOF was in Reflectron mode with laser intensity from 5500-6500 Volts. Each acquisition consisted of 2500 shots with a focus mass of 900 Da, and a scan range of m/z 400-1100. Multiple acquisition scans were performed at different laser intensities to determine optimal conditions. Samples for the MALDI-TOF were diluted to 5 mg/mL in hexane, and spotted in the fast-evaporation method in a 1:2 ratio with DHB (2,5-dihydroxybenzoic acid) as the matrix. Re-spotting with methanol allowed for the matrix and sample to mix without hexane interactions, and allowed for better crystal formation. All samples on MALDI plate were allowed to dry before MS analysis. Data was normalized to base peak in all cases.
# After the initial weight was recorded, the nonpolar extract set aside for transesterification was dissolved in 3.0 mL of 0.6 M sulfuric acid in methanol and stirred vigorously at 60° C. for 45 minutes.
# Initial GC/MS temperature was 50° C. and end was 200° C. over at a one hour period for optimal FAME peak separation.
# Peak assignment of fatty acids and their derivatives are based on NMR spectroscopic studies of previously reported algal lipid extracts^9 and comparison to standards such as olive oil (ACROS) and fatty acid mixtures.
# (§7) We developed a quick and robust method to screen if the screened compound effect fatty acid saturation levels using ^1H NMR spectroscopy. The amount of saturated fatty acids (SFA), monounsaturated fatty acids (MUFAs), and polyunsaturated fatty acids (PUFAs) was determined using peak area ratios.
# (§8) Calculated based on ^1H NMR integral ratios for the proton signals for the methyl group of PUFA components vs. the methyl groups of monounsaturated and saturated components.
# microalgae [11] = experiment: Microplate assay (growth, Nile Red lipids), algae strain not stated; details: microplate screening; strain not given; listed as (−)-epigallocatechin gallate
# PKC = details: PKC; cited from earlier work
# [12] = test system: Phaeodactylum tricornutum
# Description: The nonpolar algal extracts were harvested from 500 mL cultures when indicated on growth curves, a minimum of 3 days into stationary phase. […] Cells were crushed and nonpolar lipids were extracted by sonication (Fisher Scientific Model 120 Sonic Dismembrator, ThermoFisher, San Jose) for 1 minute in chloroform, followed by chloroform-methanol extractions, washed with PBS butter, and dried under vacuum.^55-60 The crude non-polar algae extracts were then analyzed by ^1H Nuclear Magnetic Resonance (^1H NMR) for verification of TAG presence and examination of the purity of the extract (determination of level of chlorophyll). […]
# After the initial weight was recorded, the nonpolar extract set aside for transesterification was dissolved in 3.0 mL of 0.6 M sulfuric acid in methanol and stirred vigorously at 60° C. for 45 minutes. […]
# as §7, §8
# [13] = microplate assay, multiple concentrations
# [14] = higher concentrations (>400 nM), microplate
# [15] = 40 μM, 500 mL culture, day 6 in stationary phase
# [16] = 500 mL culture, 4 μM in water, two replicates
# [17] = 200 nM, initial microplate screen, relative to control
# [18] = 20 μM, initial microplate screen, relative to control
# [19] = 500 mL batch cultures, gravimetric (Table 30)
# [20] = microplate dose-response screening
# [21] = N. oculata, 4 nM, harvested day 6 of stationary phase, n=3
structure (smiles),measurement,setting,value
"O=C(O[C@@H]1Cc2c(O)cc(O)cc2O[C@@H]1c1cc(O)c(O)c(O)c1)c1cc(O)c(O)c(O)c1 [EGCG, [(2R,3R)-5,7-dihydroxy-2-(3,4,5-trihydroxy-phenyl)-3,4-dihydro-2H-chromen-3-yl] 3,4,5-trihydroxybenzoate]",effect on growth and lipid levels,Nannochloris sp. [1],increased growth and lipid extract levels
same,Lipid productivity,Nannochloris sp. [1]; 40 nM,4.3 ± 0.8 mgL^−1day^−1
same,Change in Lipids,Nannochloris sp. [1]; 40 nM,39%
same,Specific Growth Rate,Nannochloris sp. [1]; 40 nM,0.17 ± 0.03 day⁻¹
same,Nile Red Fluorescence % Increase,"Nannochloropsis oculata [2]; N. oculata, compounds tested at 200 nM, initial screening, p<0.05",207.5%
same,effect on lipid production / lipid levels,Nannochloropsis oculata [2]; [13],lipid production increased
same,% Increase based on Nile Red Fluorescence Intensity,"Nannochloropsis salina [3]; N. salina, 493 nM, DMSO delivery, added t=day 0",87%
same,lipid increase,Nannochloropsis salina [3]; [14],> 100%
same,effect on lipid production / lipid levels,Nannochloropsis salina [3]; [13],lipid production increased
same,Absorbance at harvest,Nannochloropsis salina [4]; [15],1.41 ± 0.08
same,Dry weight,Nannochloropsis salina [4]; [15],337.40 ± 62.55 mg
same,Extract Weight,Nannochloropsis salina [4]; [15],94.77 ± 9.47 mg
same,Number of Cells,Nannochloropsis salina [4]; [15],1.36E+09
same,Recovered Weight,Nannochloropsis salina [4]; [15],330.03 ± 78.14 mg
same,effect on growth and lipid levels,Nannochloropsis salina [4],increased growth and lipid extract levels
same,Lipid productivity,Nannochloropsis salina [4]; [16],7.1 ± 1.2 mgL^−1day^−1
same,Lipid content,Nannochloropsis salina [4]; [16],32.4 ± 0.1 % w/w
same,Change in Lipids,Nannochloropsis salina [4]; [16],46%
same,Specific Growth Rate,Nannochloropsis salina [4]; [16],0.24 ± 0.01 day⁻¹
same,Lipid productivity,"Nannochloropsis salina [4]; 500 mL culture, 40 μM",6.3 ± 2.2 mgL^−1day^−1
same,Lipid content,"Nannochloropsis salina [4]; 500 mL culture, 40 μM",23.1 ± 10.6 % w/w
same,Change in Lipids,"Nannochloropsis salina [4]; 500 mL culture, 40 μM",18%
same,Specific Growth Rate,"Nannochloropsis salina [4]; 500 mL culture, 40 μM",0.22 ± 0.06 day⁻¹
same,Lipid productivity,[5],4.4 ± 2.4 mgL^−1day^−1
same,Lipid content,[5]; dried lipid extract per dry biomass,17.2 ± 1.3 % w/w
same,Change in Lipids,"[5]; gravimetric, relative to averaged control without DMSO",6%
same,Specific Growth Rate,[5]; mid-exponential growth phase,0.19 ± 0.02 day⁻¹
same,pIC50,FABI,6.70
same,effect on growth and lipid levels,Nannochloropsis oculata [6],increased growth and lipid extract levels
same,Absorbance at harvest,"Nannochloropsis oculata [6]; N. oculata, 400 nM EGCG, n=4",1.855 ± 0.142
same,Dry weight,"Nannochloropsis oculata [6]; N. oculata, 400 nM EGCG, n=4",290.7 ± 34.5
same,Extract Weight,"Nannochloropsis oculata [6]; N. oculata, 400 nM EGCG, n=4",62.3 ± 21.6
same,Lipid productivity,"Nannochloropsis oculata [6]; N. oculata, 4 μM",4.9 ± 1.7 mgL^−1day^−1
same,Lipid content,"Nannochloropsis oculata [6]; N. oculata, 4 μM",20.6 ± 6.9 % w/w
same,Change in Lipids,"Nannochloropsis oculata [6]; N. oculata, 4 μM",41%
same,Specific Growth Rate,"Nannochloropsis oculata [6]; N. oculata, 4 μM",0.17 ± 0.03 day⁻¹
same,effect on lipid levels,"Nannochloropsis oculata [6]; batch culture, combined with sodium bicarbonate addition",increases lipid levels
same,Nile Red percent increase,"Nannochloris sp. [7]; 6 nM, dose-response microplate screen",436%
same,Nile Red percent increase,"Nannochloris sp. [7]; 18.6 nM, dose-response microplate screen",199%
same,Nile Red percent increase,"Nannochloris sp. [7]; 55 nM, dose-response microplate screen",107%
same,Absorbance (percent increase),Nannochloris sp. [7]; [17],−1.0%
same,Nile Red percent increase,Nannochloris sp. [7]; [17],92.1%
same,Absorbance (percent increase),Nannochloris sp. [7]; [18],+1.9%
same,Nile Red percent increase,Nannochloris sp. [7]; [18],92.5%
same,Nile Red Fluorescence % Increase,Nannochloris sp. [7],214.9%
same,lipid increase,Nannochloris sp. [7]; [14],> 100%
same,effect on lipid production / lipid levels,Nannochloris sp. [7]; [13],lipid production increased
same,effect on growth and lipid levels,microalgae [8],positive increases in growth and lipid levels
same,increase of lipids by dry weight,microalgae [8]; 500 mL cultures (FIG. 19),> 40%
same,lipid increase,[9]; [14],> 100%
same,% Inc,"[9]; increase of lipid production, P. tricornutum, best conc. 10 nM",45.03%
same,effect on lipid production / lipid levels,[9]; [13],lipid production increased
same,SFAs (% of total lipids),Nannochloropsis oculata [10]; 4 μM,57 % of total lipids
same,n3 PUFAs (% of UFAs),Nannochloropsis oculata [10]; 4 μM,65 % of UFAs
same,All other PUFAs and MUFAs (% of UFAs),Nannochloropsis oculata [10]; 4 μM,35 % of UFAs
same,UFAs (% of total lipids),Nannochloropsis oculata [10]; 4 μM,43 % of total lipids
same,SFAs (%),"Nannochloropsis oculata [10]; N. oculata, 400 nM, n=1, Normal 0 ± 1",10%
same,MUFAs (%),"Nannochloropsis oculata [10]; N. oculata, 400 nM, n=1, Normal 4 ± 7",5%
same,n3 PUFAs (%),"Nannochloropsis oculata [10]; N. oculata, 400 nM, n=1, Normal 28 ± 4",20%
same,PUFAs (%),"Nannochloropsis oculata [10]; N. oculata, 400 nM, n=1, Normal 96 ± 7",85%
same,"increase in (intracellular) lipid levels, Nile Red",microalgae [11],more than 100%
"C=C[C@@]1(C)CC(=O)[C@]2(O)[C@@]3(C)[C@@H](O)CCC(C)(C)[C@@H]3[C@H](O)[C@H](OC(C)=O)[C@@]2(C)O1 [Forskolin, (3R,4aR,5S,6S,6aS,10S,10aR,10bS)-6,10,10b-Trihydroxy-3,4a,7,7,10a-pentamethyl-1-oxo-3-vinyldodecahydro-1H-benzo[f]chromen-5-yl acetate]",effect on growth and lipid levels,Nannochloris sp. [1],increases in lipid production
same,increase in lipid levels,Nannochloris sp. [1]; [19],51%
same,Lipid productivity,Nannochloris sp. [1]; 10 μM,4.5 ± 1.7 mgL^−1day^−1
same,Change in Lipids,Nannochloris sp. [1]; 10 μM,51%
same,Specific Growth Rate,Nannochloris sp. [1]; 10 μM,0.15 ± 0.05 day⁻¹
same,Absorbance (percent increase),Nannochloropsis oculata [2]; [18],−17.3%
same,Nile Red percent increase,Nannochloropsis oculata [2]; [18],50.4%
same,lipid increase relative to the control,Nannochloropsis oculata [2]; [20],≥ 100%
same,lipid increase relative to the control,Nannochloropsis salina [3]; [20],~40%
same,effect on growth and lipid levels,Nannochloropsis salina [4],increases in lipid production
same,effect on growth and lipid levels,Nannochloropsis oculata [6],increases in lipid production
same,increase in lipid levels,Nannochloropsis oculata [6]; [19],84%
same,Absorbance at harvest,Nannochloropsis oculata [6]; [21],2.10
same,Dry weight,Nannochloropsis oculata [6]; [21],353.57 mg
same,Extract Weight,Nannochloropsis oculata [6]; [21],88.67 mg
same,Number of Cells,Nannochloropsis oculata [6]; [21],2.46E+09
same,Recovered Weight,Nannochloropsis oculata [6]; [21],344.90 mg
same,Lipid productivity,"Nannochloropsis oculata [6]; N. oculata, 4 nM",6.4 ± 1.2 mgL^−1day^−1
same,Lipid content,"Nannochloropsis oculata [6]; N. oculata, 4 nM",25.6 ± 1.8 % w/w
same,Change in Lipids,"Nannochloropsis oculata [6]; N. oculata, 4 nM",84%
same,Specific Growth Rate,"Nannochloropsis oculata [6]; N. oculata, 4 nM",0.17 ± 0.02 day⁻¹
same,Nile Red percent increase,"Nannochloris sp. [7]; 13 nM, dose-response microplate screen",121%
same,Nile Red percent increase,"Nannochloris sp. [7]; 41.2 nM, dose-response microplate screen",118%
same,Absorbance (percent increase),Nannochloris sp. [7]; [17],−5.5%
same,Nile Red percent increase,Nannochloris sp. [7]; [17],60.6%
same,Nile Red Fluorescence % Increase,Nannochloris sp. [7],45.3%
same,lipid increase relative to the control,Nannochloris sp. [7]; [20],≥ 100%
same,effect on growth and lipid levels,microalgae [8],positive increases in growth and lipid levels
same,Absorbance (percent increase),[9]; [17],−1.2%
same,Nile Red percent increase,[9]; [17],103.6%
same,lipid increase relative to the control,[9]; [20],~40%
same,SFAs (% of total lipids),Nannochloropsis oculata [10]; 40 nM,59 % of total lipids
same,n3 PUFAs (% of UFAs),Nannochloropsis oculata [10]; 40 nM,61 % of UFAs
same,All other PUFAs and MUFAs (% of UFAs),Nannochloropsis oculata [10]; 40 nM,39 % of UFAs
same,UFAs (% of total lipids),Nannochloropsis oculata [10]; 40 nM,41 % of total lipids
COC(=O)[C@@]1(O)C[C@H]2O[C@]1(C)n1c3ccccc3c3c4c(c5c6ccccc6n2c5c31)C(=O)NC4 [K-252a],pKi,PKC,7.60
O=C([O-])O.[Na+] [sodium bicarbonate],effect on PUFA levels,[12],increases PUFA levels

# Source: patent publication US8778643B2, “Methods for increasing lipid levels and producing triacylglycerols in algae” (priority 2012, dated 2014)
